Measured values reported in article PMC8401404 (Molecules, 2021).
Where a name gives a salt, the structure may show the parent alone. Read-outs that look alike come from different tables or passages of the source.

Key:
[1] = Solubility in water (stock solutions)
[2] = test system: E. coli ATCC 25922; test: Broth microdilution testing (CLSI); type: cell-based, Escherichia coli; details: broth microdilution, 16–24h at 37 °C, read-out: MIC E. coli ATCC 25922
Description: (§1) Broth microdilution testing was performed according to CLSI (Clinical Laboratory Standards Institute) guidelines. MIC (minimal inhibitory concentration) value was defined as the last tested concentration of compound at which there is no visible growth of bacteria. […] Clinical and Laboratory Standards Institute (CLSI) guidelines.

[3] = test system: A549; test: BrdU proliferation assay, 2D cell culture; type: cell-based, human; details: A549, 2D, BrdU, n = 2, read-out: Proliferation Assay IC50 ± SD
Description: (§2) MTS assay gives us information about the number of living cells, in this case, metabolically active cells, whereas the BrdU proliferation assay gives a measure of the cell population in active division phase. Both assays were performed in 2D and 3D assay formats. For the 2D cell assay format, we used classic two-dimensional in vitro assays and as a 3D assay we used a hanging drop proliferation cell assay as previously described. We explored the activity of compounds on three human lung cancer cell lines, A549, HCC827 and NCI-H358. The compound activity was also tested on human lung fibroblast cell line MRC-5. A two-dimensional in vitro viability assay was performed on the MRC-5 cell line to see if tested compounds are cytotoxic on normal cell lines in low concentrations. […] 7.1.
(§3) Test compounds were synthesized by a research group at the Department of Organic Chemistry, Faculty of Chemical Engineering and Technology, University of Zagreb. […] Compounds were diluted 1:3. We transferred 500 nL (for 2D cell culture) or 400 nL (for 3D cell culture) of the compound from a mother plate to test plate by using Mosquito (TTP labtech). DMSO percentage in test concentrations was 0.5–1.0%. Starting concentration of the test compounds and standard compound doxorubicin was 50 µM (2D cell culture) or 100 µM (3D cell culture).
(§4) Cells were grown in 96-well cell star polystyrene plates. We seeded 10,000 cells/well in wells 4 h prior to the treatment with different compounds concentrations and incubated for 72 h. A cell viability assay was performed according to the manufacturer’s instructions, using CellTiter 96 aqueous solution, MTS kit (Promega, Madison, WI, USA). After 0.5–2 h of cell incubation with MTS in 2D cell culture, the plates were read using PE EnVision absorbance at 490 nm.
(§5) Proliferation assay was performed using Cell Proliferation ELISA, BrdU (Sigma, St. Louis, MO, USA). Briefly, 48 h hours after compound addition, 10 µM of BrdU was added to each well and incubated for the following 24 h. After incubation, a single cell suspension was made for 3D cell culture in the new 96-well plate. Plates were centrifuged and supernatants were removed from each plate (for 2D and 3D cell culture) followed by 60 min incubation at 60 °C. The rest of the proliferation assay was performed according to the manufacturer’s instructions.
(§6) Calculation of IC50 data, curves and QC analysis was performed by using Excel tools and GraphPadPrism software (La Jolla, CA, USA), v. […] QC criteria parameters (Z’, S:B, R2, HillSlope) were checked for every IC50 curve.

[4] = test system: NCI-H358; test: BrdU proliferation assay, 2D cell culture; type: cell-based, human; details: NCI-H358, 2D, n = 2, read-out: Proliferation Assay IC50 ± SD
Description: as §2, §3, §4, §5, §6

[5] = test system: HCC827; test: BrdU proliferation assay, 2D cell culture; type: cell-based, human; details: HCC827, 2D, BrdU, n = 2, read-out: Proliferation Assay IC50 ± SD
Description: as §2, §3, §4, §5, §6

[6] = test system: A549; test: BrdU proliferation assay, 3D hanging drop cell culture; type: cell-based, human; details: A549, 3D, BrdU, n = 2, read-out: Proliferation Assay IC50 ± SD
Description: as §2, §3
(§7) Cells were grown in 96-well Perfecta 3D hanging drop plates 5000 cell/well for 4 days until spheres were formed (and checked under the microscope). After sphere formation cells were treated with compounds followed by 72 h incubation. Cell viability assay was performed according to the manufacturer’s instructions, using CellTiter GLO 3D for 3D cell culture (Promega); cell incubation was 5 min on the shaker followed by 25 min incubation in the dark. Plates were read using PE EnVision luminescence.
as §5, §6

[7] = test system: NCI-H358; test: as above; type: cell-based, human; details: NCI-H358, 3D, n = 2, read-out: Proliferation Assay IC50 ± SD
Description: as §2, §3, §7, §5, §6

[8] = test system: HCC827; test: as above; type: cell-based, human; details: HCC827, 3D, BrdU, n = 2, read-out: Proliferation Assay IC50 ± SD
Description: as §2, §3, §7, §5, §6

[9] = test system: ctDNA; test: Thermal melting experiments; type: binding, calf; details: r = [compound]/[polynucleotide] = 0.3, pH 7.0, sodium cacodylate buffer I = 0.05 mol dm^−3; error ±0.5 °C
Excerpt: (§8) The thermal stability of helices is usually affected by the non-covalent binding of small molecules to double-stranded nucleic acids. We determined the ΔTm value (the difference between the Tm value of free polynucleotide and a complex with a small molecule) for complexes of selected compounds with ctDNA and an alternating polynucleotide, poly(dAdT)2. […] Because of this, we determined ΔTm value with non-alternating AT-DNA, poly dA-poly dT as well.

[10] = test system: A549; test: MTS cytotoxicity assay, 2D cell culture; details: read-out: Cytotoxicity Assay IC50 ± SD, A549 2D, 72 h, MTS, n = 2
Description: as §2, §3, §4, §6

[11] = test system: NCI-H358; test: MTS cytotoxicity assay, 2D cell culture; details: read-out: Cytotoxicity Assay IC50 ± SD, NCI-H358 2D
Description: as §2, §3, §4, §6

[12] = test system: HCC827; test: MTS cytotoxicity assay, 2D cell culture; details: read-out: Cytotoxicity Assay IC50 ± SD, HCC827 2D
Description: as §2, §3, §4, §6

[13] = test system: S. cerevisiae ATCC 7752; test: Broth microdilution testing (CLSI); type: cell-based, Saccharomyces cerevisiae; details: broth microdilution, 16–24h at 37 °C, read-out: MIC S. cerevisiae ATCC 7752
Description: as §1

[14] = test system: A549; test: Cytotoxicity (viability) assay, 3D hanging drop cell culture; details: read-out: Cytotoxicity Assay IC50 ± SD, A549 3D
Description: as §2, §3, §7, §6

[15] = test system: NCI-H358; test: as above; details: read-out: Cytotoxicity Assay IC50 ± SD, NCI-H358 3D
Description: as §2, §3, §7, §6

[16] = test system: HCC827; test: as above; details: read-out: Cytotoxicity Assay IC50 ± SD, HCC827 3D
Description: as §2, §3, §7, §6

[17] = test system: calf thymus DNA (ctDNA); test: Fluorimetric titrations with ctDNA; details: fluorescence titrations, Scatchard equation, pH 7.0, sodium cacodylate buffer I = 0.05 mol dm-3
Description: The UV/vis spectra were recorded on a Varian Cary 100 Bio spectrophotometer, CD spectra on JASCO J815 spectrophotometer and fluorescence spectra on a Varian Cary Eclipse spectrophotometer.
Spectrophotometric titrations were performed at pH = 7 (I = 0.05 mol dm^−3, sodium cacodylate buffer) by adding portions of polynucleotide solution into the solution of the studied compound for fluorimetric experiments and CD experiments were performed by adding portions of the compound stock solution into the solution of a polynucleotide. In fluorimetric experiments excitation wavelengths of λexc = 350, 370 and 390 nm were used to avoid the inner filter effect caused due by increasing absorbance of the polynucleotide (Figures S3 and S4). Emission was collected in the range λem = 400–600 nm (SI).
aTitration data were processed using Scatchard equation, correlation coefficients were >0.97-
0.99 for all calculated Ks

[18] = test system: S. aureus ATCC 29213; test: Broth microdilution testing (CLSI); type: cell-based, Staphylococcus aureus; details: 16–24h at 37 °C, read-out: MIC S. aureus ATCC 29213
Description: as §1

[19] = test system: poly dA-poly dT; test: Thermal melting experiments; type: binding; details: r = 0.3, pH 7.0, sodium cacodylate buffer I = 0.05 mol dm^−3; error ±0.5 °C
Excerpt: as §8

[20] = test system: poly(dAdT)2; test: Thermal melting experiments; type: binding; details: r = 0.3, pH 7.0, sodium cacodylate buffer I = 0.05 mol dm^−3; error ±0.5 °C
Excerpt: as §8

[21] = MTS cytotoxicity assay, 2D cell culture, normal lung fibroblasts; details: human, MRC-5 normal lung fibroblasts, 2D culture
Description: as §2, §3, §4, §6

[22] = test system: human lung fibroblast cell line MRC-5; test: as above; details: read-out: Cytotoxicity Assay IC50 ± SD; MRC-5 2D; MRC-5 normal lung fibroblasts, 2D, 72 h, MTS; n = 2
Description: as §2, §3, §4, §6

[23] = test system: poly dA-poly dT (DNA, polymer) A/T; test: UV thermal melting at 260 nm; details: Na+ (sodium cacodylate, I = 0.05 M), pH 7.0, r = [compound]/[polynucleotide phosphate] = 0.3, error ±0.5, per base
[24] = test system: poly(dAdT)2 (DNA, polymer) AT; test: UV thermal melting at 260 nm; details: Na+ (sodium cacodylate, I = 0.05 M), pH 7.0, r = [compound]/[polynucleotide phosphate] = 0.3, error ±0.5, per base
[25] = test system: poly(dAdT)2 (DNA, polymer) AT; test: CD titration; details: Na+ (sodium cacodylate, I = 0.05 M), pH 7.0, 25 °C, polynucleotide 3.0 × 10^-5 M
[26] = Saccharomyces cerevisiae, ATCC7752
[27] = Staphylococcus aureus, ATCC29213, broth microdilution

SMILES | solubility [1] [µM] | MIC ([2]; Escherichia coli, ATCC25922) [µM] | IC50 ([3]; Homo sapiens) [µM] | IC50 ([4]; Homo sapiens) [µM] | IC50 ([5]; Homo sapiens) [µM] | IC50 ([6]; Homo sapiens) [µM] | IC50 ([7]; Homo sapiens) [µM] | IC50 ([8]; Homo sapiens) [µM] | ΔTm ctDNA [9] [°C] | IC50 ([10]; Homo sapiens, A549, 72 h) [µM] | IC50 ([11]; Homo sapiens, NCI-H358, 72 h) [µM] | IC50 ([12]; Homo sapiens, HCC827, 72 h) [µM] | MIC [13, 26] [µM] | IC50 ([14]; Homo sapiens, A549, 72 h) [µM] | IC50 ([15]; Homo sapiens, NCI-H358, 72 h) [µM] | IC50 ([16]; Homo sapiens, HCC827, 72 h) [µM] | Binding constants (logKs) with ctDNA [17] | MIC [18, 27] [µM] | ΔTm Poly dA-poly dT [19] [°C] | ΔTm poly (dAdT)2 [20] [°C] | also measured
CC(C)NC(=N)c1ccc2nc(-c3ccc(-c4ccc([N+](=O)[O-])cc4)o3)sc2c1 [Compound 5, 2-[5-(4-Nitrophenyl)furan-2-yl]-6-N-isopropilamidinobenzothiazole hydrochloride] | 3000 | > 100 | 4.76 ± 1.03 | 3.56 ± 0.18 | 13.7 ± 3.13 | 65.9 ± 3.66 | 14.3 ± 0.84 | 14.7 ± 13.4 | 2.5 | 8.76 ± 1.69 | 9.97 ± 0.59 | 19.3 ± 1.72 | 12.5 | 26.4 ± 13.4 | 14.8 ± 0.57 | 43.6 ± 6.45 | 6.4 | 50 | 5.5 | 4.8 | IC50 at 72 h [21]: 21.7 ± 0.51 µM
N#CC(=Cc1ccc(-c2ccc([N+](=O)[O-])cc2)o1)c1nc2cc([N+](=O)[O-])ccc2[nH]1 [Compound 18, (E,Z)-2-(5(6)-Nitrobenzimidazol-2-yl)-3-[5-(4-nitrophenyl)furan-2-yl]acrylonitrile] |  |  |  |  |  |  |  |  |  |  |  |  |  |  |  |  |  |  |  |  | MIC [2]: >100 µM; IC50 [3]: > 50 µM; IC50 [4]: > 50 µM; IC50 [5]: > 50 µM; IC50 [6]: > 100 µM; IC50 [7]: > 100 µM; IC50 [8]: > 100 µM; IC50 [10]: > 50 µM; IC50 ([11]; 72 h, MTS, n = 2): 3.5 ± 1.14 µM; IC50 ([12]; 72 h, MTS, n = 2): > 50 µM; MIC [13]: >100 µM; IC50 ([14]; A549, 3D hanging drop spheres, 72 h, n = 2): > 100 µM; IC50 ([15]; NCI-H358, 3D hanging drop spheres, 72 h, n = 2): > 100 µM; IC50 ([16]; HCC827, 3D hanging drop spheres, 72 h, n = 2): > 100 µM; MIC ([18]; broth microdilution): >100 µM; IC50 [22]: > 50 µM
CC(C)NC(=N)c1ccc2nc(-c3ccc(-c4ccc(Cl)cc4)o3)sc2c1 |  |  |  |  |  |  |  |  |  |  |  |  |  |  |  |  |  |  |  |  | ΔTm [23]: 4.3 °C; ΔTm [24]: 3.6 °C; binding [25]: yes
Cl.Clc1ccc(-c2ccc(-c3nc4ccc(C5=NCCN5)cc4s3)o2)cc1 [Compound 9, 2-[5-(4-Chlorophenyl)furan-2-yl]-6-(4,5-Dihydro-1H-imidazol-2-yl)benzothiazole hydrochloride] | 1320 | > 100 | 9.97 ± 5.37 | 5.57 ± 0.81 | 8.69 ± 2.79 | 17 ± 3.53 | 6.39 ± 3.29 | 20.3 ± 13.9 | 1.8 | 4.39 ± 0.79 | 4.48 ± 0.3 | 5.9 ± 0.58 | 3.13 | 16.8 ± 2.61 | 15.49 ± 0.07 | 20 ± 7.92 | 6.1 | 25 | 15.2 | 4.6 | ΔTm [23]: 15.2 °C; ΔTm [24]: 4.6 °C; melting point: 293 to 297 °C; binding [25]: yes; IC50 at 72 h [21]: 6.65 ± 0.18 µM
CC(C)NC(=N)c1ccc2nc(-c3ccc(-c4ccc(Cl)cc4)o3)sc2c1 [Compound 8, 2-[5-(4-Chlorophenyl)furan-2-yl]-6-N-isopropilamidinobenzothiazole hydrochloride] | 3000 | > 100 | 8.78 ± 3.62 | 6.68 ± 0.15 | 13.5 ± 0.81 | 19.9 ± 2.19 | 11.3 ± 0.49 | 17.8 ± 4.24 | 1.7 | 6.75 ± 0.19 | 6.48 ± 0.11 | 6.26 ± 0.33 | 6.25 | 9.31 ± 0.78 | 16 ± 9.38 | 20.5 ± 8.63 | 6.3 | 12.5 | 4.3 | 3.6 | IC50 [10]: 6.74 ± 0.19 µM; IC50 at 72 h [21]: 9.88 ± 2.38 µM
